Results as given in US9439432B2, “Phenylisoxazoline-based compound having herbicidal activity and use thereof” (MOGHU RESEARCH CENTER LTD, priority 2011, dated 2016).

Key:
Assay type in all cases: in vivo
Alopecurus myosuroides [1] = assay: Pre-emergence treatment, herbicidal efficacy on blackgrass; conditions: 4 weeks after spraying, scale 0 to 10
Procedure: (§1) A rectangular plastic pot having a surface area of 300 cm^2 was filled with sandy loam soil and mixed bed soil which were mixed at a ratio of 1:1, and then, barnyardrass (Echinochloa crusgalli), large crabgrass (Digitaria sanguinalis), blackgrass (Alopecurus myosuroides), and annual bluegrass (Poa annua), which are grass weeds, were seeded thereto. In a pot that was prepared as described above, seeds of corn, soybean, cotton, wheat, and rice were seeded. The pots were irrigated, and one day after, chemicals were sprayed thereto. The spraying was performed by using a track sprayer (R&D Sprayer, USA) equipped with a Teejet 8002 (Spraying Systems Co., USA) nozzle, and a spraying amount was adjusted at 300 L/ha. A spraying solution was prepared by dissolving test materials or references in acetone and adding the same amount of 0.2%(v/v) tween 20 aqueous solution thereto. Application rates were 500, 250, 125, and 62.5 g/ha. The pots were placed in a greenhouse in which during day, the temperature was maintained at a temperature of 25 to 30° C., and during night, the temperature was maintained at a temperature of 15 to 25° C., and the pots were periodically irrigated. Four weeks after the spraying the test materials or References, effects and phytotoxicity of the respective weeds and crops were evaluated in a scale of 0 to 10 (0: no effects, 10: complete death), and results thereof are shown in Table 4 below.

Corn [2] = assay: Post-emergence treatment, phytotoxicity to corn; conditions: post-emergence (about 3 leaf stage), 1,000 g/ha, 4 weeks after spraying, scale 0 to 10 (0: no effects, 10: complete death)
Procedure: as §1
(§2) Pots containing crops and weeds were prepared in the same manner as in Example 7, and then, in the second week in which crops and weeds entered into about 3 leaf stage, the test materials and the references were sprayed thereto in the same manner as described above. The rates were 1,000, 500, 250, and 125 g/ha. Four weeks after the spraying of the test materials or the references, herbicidal efficacy and phytotoxicity to the respective weeds and crops were evaluated in a scale of 0 to 10 (0: no effects, 10: complete death).

Cotton [3] = assay: Pre-emergence treatment, phytotoxicity to cotton; conditions: 500 g/ha, 4 weeks after spraying, scale 0 to 10 (0: no effects, 10: complete death)
Procedure: as §1

Digitaria sanguinalis [4] = assay: Pre-emergence treatment, herbicidal efficacy on large crabgrass; conditions: 4 weeks after spraying, scale 0 to 10
Procedure: as §1

Poa annua [5] = assay: Pre-emergence treatment, herbicidal efficacy on annual bluegrass; conditions: 4 weeks after spraying, scale 0 to 10
Procedure: as §1

Soybean [6] = assay: Pre-emergence treatment, phytotoxicity to soybean; conditions: 500 g/ha, 4 weeks after spraying, scale 0 to 10 (0: no effects, 10: complete death)
Procedure: as §1

Echinochloa crusgalli [7] = assay: Pre-emergence treatment, herbicidal efficacy on barnyardgrass; conditions: 4 weeks after spraying
Procedure: as §1

Digitaria sanguinalis [8] = assay: Post-emergence treatment, herbicidal efficacy on large crabgrass; conditions: 4 weeks after spraying, scale 0 to 10
Procedure: as §1, §2

Rice [9] = assay: Post-emergence treatment, phytotoxicity to rice; conditions: post-emergence (about 3 leaf stage), 1,000 g/ha, 4 weeks after spraying, scale 0 to 10 (0: no effects, 10: complete death)
Procedure: as §1, §2

Corn [10] = assay: Pre-emergence treatment, phytotoxicity to corn; conditions: 500 g/ha, 4 weeks after spraying, scale 0 to 10 (0: no effects, 10: complete death)
Procedure: as §1

Alopecurus myosuroides [11] = assay: Post-emergence treatment, herbicidal efficacy on blackgrass; conditions: 4 weeks after spraying, scale 0 to 10
Procedure: as §1, §2

[12] = test system: grass weeds including barnyardrass, large crabgrass, and annual bluegrass; assay: Pre-emergence treatment, grass weeds overall; conditions: relative to reference compounds
Procedure: as §1

Rice [13] = assay: Pre-emergence treatment, phytotoxicity to rice; conditions: 500 g/ha, 4 weeks after spraying, scale 0 to 10 (0: no effects, 10: complete death)
Procedure: as §1

Cotton [14] = assay: Post-emergence treatment, phytotoxicity to cotton; conditions: post-emergence (about 3 leaf stage), 1,000 g/ha, 4 weeks after spraying, scale 0 to 10 (0: no effects, 10: complete death)
Procedure: as §1, §2

Soybean [15] = assay: Post-emergence treatment, phytotoxicity to soybean; conditions: post-emergence (about 3 leaf stage), 1,000 g/ha, 4 weeks after spraying, scale 0 to 10 (0: no effects, 10: complete death)
Procedure: as §1, §2

Echinochloa crusgalli [16] = assay: Post-emergence treatment, herbicidal efficacy on barnyardgrass; conditions: 4 weeks after spraying, scale 0 to 10
Procedure: as §1, §2

Wheat [17] = assay: Post-emergence treatment, phytotoxicity to wheat; conditions: post-emergence (about 3 leaf stage), 1,000 g/ha, 4 weeks after spraying, scale 0 to 10 (0: no effects, 10: complete death)
Procedure: as §1, §2

Poa annua [18] = assay: Post-emergence treatment, herbicidal efficacy on annual bluegrass; conditions: 4 weeks after spraying, scale 0 to 10
Procedure: as §1, §2

Wheat [19] = assay: Pre-emergence treatment, phytotoxicity to wheat; conditions: 500 g/ha, 4 weeks after spraying, scale 0 to 10 (0: no effects, 10: complete death)
Procedure: as §1

[20] = 500 g/ha, scale 0 to 10 (0: no effects, 10: complete death)

`CC1(COCc2c(F)cccc2F)CC(c2ccccc2Cl)=NO1` (stereo not shown) [Compound 2, 3-(2-chlorophenyl)-5-((2,6-difluorobenzyloxy)methyl)-5-methyl-4,5-dihydroisoxazole] was tested, and the “Herbicidal efficacy, Alopecurus myosuroides” value (Alopecurus myosuroides [1]; 62.5 g/ha) was 2, the “Herbicidal efficacy, Alopecurus myosuroides” value (Alopecurus myosuroides [1]; 125 g/ha) was 3 and the “Herbicidal efficacy, Alopecurus myosuroides” value (Alopecurus myosuroides [1]; 250 g/ha) was 6. For the same compound, the “Herbicidal efficacy, Alopecurus myosuroides” value (Alopecurus myosuroides [1]; 500 g/ha) was 10, the “Phytotoxicity, Corn” value (Corn [2]) was 2 and the “Phytotoxicity, Cotton” value (Cotton [3]) was 0. The “Herbicidal efficacy, Digitaria sanguinalis” value (Digitaria sanguinalis [4]; 62.5 g/ha) was 9, the “Herbicidal efficacy, Digitaria sanguinalis” value (Digitaria sanguinalis [4]; 125 g/ha) was 10 and the “Herbicidal efficacy, Digitaria sanguinalis” value (Digitaria sanguinalis [4]; 250 g/ha) was 10. The “Herbicidal efficacy, Digitaria sanguinalis” value (Digitaria sanguinalis [4]; 500 g/ha) was 10, the “Herbicidal efficacy, Poa annua” value (Poa annua [5]; 62.5 g/ha) was 8 and the “Herbicidal efficacy, Poa annua” value (Poa annua [5]; 125 g/ha) was 9. For the same compound, the “Herbicidal efficacy, Poa annua” value (Poa annua [5]; 250 g/ha) was 10, the “Herbicidal efficacy, Poa annua” value (Poa annua [5]; 500 g/ha) was 10 and the “Phytotoxicity, Soybean” value (Soybean [6]) was 0. For the same compound, the “Herbicidal efficacy, Echinochloa crusgalli” value (Echinochloa crusgalli [7]; 62.5 g/ha, scale 0 to 10) was 9, the “Herbicidal efficacy, Echinochloa crusgalli” value (Echinochloa crusgalli [7]; 125 g/ha, scale 0 to 10) was 10 and the “Herbicidal efficacy, Echinochloa crusgalli” value (Echinochloa crusgalli [7]; 250 g/ha, scale 0 to 10) was 10. The “Herbicidal efficacy, Echinochloa crusgalli” value (Echinochloa crusgalli [7]; [20]) was 10, the “Herbicidal efficacy, Digitaria sanguinalis” value (Digitaria sanguinalis [8]; post-emergence, 125 g/ha) was 5 and the “Herbicidal efficacy, Digitaria sanguinalis” value (Digitaria sanguinalis [8]; post-emergence, 250 g/ha) was 5. The “Herbicidal efficacy, Digitaria sanguinalis” value (Digitaria sanguinalis [8]; post-emergence, 500 g/ha) was 6, the “Herbicidal efficacy, Digitaria sanguinalis” value (Digitaria sanguinalis [8]; post-emergence, 1,000 g/ha) was 10 and the “Phytotoxicity, Rice” value (Rice [9]) was 1. The “Phytotoxicity, Corn” value (Corn [10]) was 0, the “Herbicidal efficacy, Alopecurus myosuroides” value (Alopecurus myosuroides [11]; post-emergence, 125 g/ha) was 1 and the “Herbicidal efficacy, Alopecurus myosuroides” value (Alopecurus myosuroides [11]; post-emergence, 250 g/ha) was 5. The “Herbicidal efficacy, Alopecurus myosuroides” value (Alopecurus myosuroides [11]; post-emergence, 500 g/ha) was 7, the “Herbicidal efficacy, Alopecurus myosuroides” value (Alopecurus myosuroides [11]; post-emergence, 1,000 g/ha) was 9 and the “efficacy stronger than the References” value [12] was “about 4 times”. The “Phytotoxicity, Rice” value (Rice [13]) was 0, the “Phytotoxicity, Cotton” value (Cotton [14]) was 1 and the “Phytotoxicity, Soybean” value (Soybean [15]) was 1. For the same compound, the “Herbicidal efficacy, Echinochloa crusgalli” value (Echinochloa crusgalli [16]; post-emergence, 125 g/ha) was 0, the “Herbicidal efficacy, Echinochloa crusgalli” value (Echinochloa crusgalli [16]; post-emergence, 250 g/ha) was 5 and the “Herbicidal efficacy, Echinochloa crusgalli” value (Echinochloa crusgalli [16]; post-emergence, 500 g/ha) was 8. The “Herbicidal efficacy, Echinochloa crusgalli” value (Echinochloa crusgalli [16]; post-emergence, 1,000 g/ha) was 10, the “Phytotoxicity, Wheat” value (Wheat [17]) was 1 and the “Herbicidal efficacy, Poa annua” value (Poa annua [18]; post-emergence, 125 g/ha) was 5. The “Herbicidal efficacy, Poa annua” value (Poa annua [18]; post-emergence, 250 g/ha) was 8, the “Herbicidal efficacy, Poa annua” value (Poa annua [18]; post-emergence, 500 g/ha) was 8 and the “Herbicidal efficacy, Poa annua” value (Poa annua [18]; post-emergence, 1,000 g/ha) was 10. The “Phytotoxicity, Wheat” value (Wheat [19]) was 0.
For `Cc1cccc(C2=NOC(C)(COCc3c(F)cccc3F)C2)c1` (stereo not shown) [Reference F], the “Herbicidal efficacy, Alopecurus myosuroides” value (Alopecurus myosuroides [1]; 62.5 g/ha) was 0, the “Herbicidal efficacy, Alopecurus myosuroides” value (Alopecurus myosuroides [1]; 125 g/ha) was 0 and the “Herbicidal efficacy, Alopecurus myosuroides” value (Alopecurus myosuroides [1]; 250 g/ha) was 0. The “Herbicidal efficacy, Alopecurus myosuroides” value (Alopecurus myosuroides [1]; 500 g/ha) was 3, the “Phytotoxicity, Corn” value (Corn [2]) was 2 and the “Phytotoxicity, Cotton” value (Cotton [3]) was 0. For the same compound, the “Herbicidal efficacy, Digitaria sanguinalis” value (Digitaria sanguinalis [4]; 62.5 g/ha) was 1, the “Herbicidal efficacy, Digitaria sanguinalis” value (Digitaria sanguinalis [4]; 125 g/ha) was 2 and the “Herbicidal efficacy, Digitaria sanguinalis” value (Digitaria sanguinalis [4]; 250 g/ha) was 6. The “Herbicidal efficacy, Digitaria sanguinalis” value (Digitaria sanguinalis [4]; 500 g/ha) was 10, the “Herbicidal efficacy, Poa annua” value (Poa annua [5]; 62.5 g/ha) was 0 and the “Herbicidal efficacy, Poa annua” value (Poa annua [5]; 125 g/ha) was 0. The “Herbicidal efficacy, Poa annua” value (Poa annua [5]; 250 g/ha) was 5, the “Herbicidal efficacy, Poa annua” value (Poa annua [5]; 500 g/ha) was 9 and the “Phytotoxicity, Soybean” value (Soybean [6]) was 0. For the same compound, the “Herbicidal efficacy, Echinochloa crusgalli” value (Echinochloa crusgalli [7]; 62.5 g/ha, scale 0 to 10) was 0, the “Herbicidal efficacy, Echinochloa crusgalli” value (Echinochloa crusgalli [7]; 125 g/ha, scale 0 to 10) was 1 and the “Herbicidal efficacy, Echinochloa crusgalli” value (Echinochloa crusgalli [7]; 250 g/ha, scale 0 to 10) was 5. The “Herbicidal efficacy, Echinochloa crusgalli” value (Echinochloa crusgalli [7]; [20]) was 10, the “Herbicidal efficacy, Digitaria sanguinalis” value (Digitaria sanguinalis [8]; post-emergence, 125 g/ha) was 0 and the “Herbicidal efficacy, Digitaria sanguinalis” value (Digitaria sanguinalis [8]; post-emergence, 250 g/ha) was 3. The “Herbicidal efficacy, Digitaria sanguinalis” value (Digitaria sanguinalis [8]; post-emergence, 500 g/ha) was 4, the “Herbicidal efficacy, Digitaria sanguinalis” value (Digitaria sanguinalis [8]; post-emergence, 1,000 g/ha) was 6 and the “Phytotoxicity, Rice” value (Rice [9]) was 0. The “Phytotoxicity, Corn” value (Corn [10]) was 1, the “Herbicidal efficacy, Alopecurus myosuroides” value (Alopecurus myosuroides [11]; post-emergence, 125 g/ha) was 0 and the “Herbicidal efficacy, Alopecurus myosuroides” value (Alopecurus myosuroides [11]; post-emergence, 250 g/ha) was 0. The “Herbicidal efficacy, Alopecurus myosuroides” value (Alopecurus myosuroides [11]; post-emergence, 500 g/ha) was 2, the “Herbicidal efficacy, Alopecurus myosuroides” value (Alopecurus myosuroides [11]; post-emergence, 1,000 g/ha) was 4 and the “Phytotoxicity, Rice” value (Rice [13]) was 0. For the same compound, the “Phytotoxicity, Cotton” value (Cotton [14]) was 0, the “Phytotoxicity, Soybean” value (Soybean [15]) was 0 and the “Herbicidal efficacy, Echinochloa crusgalli” value (Echinochloa crusgalli [16]; post-emergence, 125 g/ha) was 0. For the same compound, the “Herbicidal efficacy, Echinochloa crusgalli” value (Echinochloa crusgalli [16]; post-emergence, 250 g/ha) was 3, the “Herbicidal efficacy, Echinochloa crusgalli” value (Echinochloa crusgalli [16]; post-emergence, 500 g/ha) was 4 and the “Herbicidal efficacy, Echinochloa crusgalli” value (Echinochloa crusgalli [16]; post-emergence, 1,000 g/ha) was 6. For the same compound, the “Phytotoxicity, Wheat” value (Wheat [17]) was 0, the “Herbicidal efficacy, Poa annua” value (Poa annua [18]; post-emergence, 125 g/ha) was 0 and the “Herbicidal efficacy, Poa annua” value (Poa annua [18]; post-emergence, 250 g/ha) was 3. The “Herbicidal efficacy, Poa annua” value (Poa annua [18]; post-emergence, 500 g/ha) was 5, the “Herbicidal efficacy, Poa annua” value (Poa annua [18]; post-emergence, 1,000 g/ha) was 6 and the “Phytotoxicity, Wheat” value (Wheat [19]) was 0.
